Laboratory results as given in patent US4008219A, “4-Benzazonine derivatives and process for preparation thereof” (Nihon Iyakuhin Kogyo Co., Ltd., priority 1973, dated 1977).

Tests used:
[1] = tested on: mice of the ddN-series; test: Analgesic test, Chemical Stimulus Method (Writhing Method); format: in vivo, mouse; design: scale not given here; settings: interabdominal injection, comparative value, scale not given
Experimental: (§1) Results of comparative tests where the medicinal effects of compounds of this invention were compared with those of known compounds such as pentazocine and codeine phosphate by employing mice and guinea pigs as the test animals are shown in the following Tables I and II.
Chemical Stimulus Method^1)
(interabdominal injection)
(§2) Tested Animal: mice of the ddN-series, .male., 20 ± 1 experimental
(§3) Conditions: temperature of 24 ± 1° C., relative humidity of 65
^1) R. Koster, M. Anderson and E. J. De Beer, Federation Proceedings, […]

[2] = tested on: mice of the ddN-series; test: Analgesic test, Heat Stimulus Method (Hot Plate Method); format: in vivo, mouse; design: reference not given here; settings: hypodermic injection, comparative value, scale not given
Experimental: as §1
Heat Stimulus Method^2)
as §2, §3
^2) G. Woolfe and A. D. Mac Donald; Journal of Pharmacology and […]

[3] = Acute Toxicity; settings: in vivo; mouse, intravenous injection
Experimental: as §2, §3

[4] = tested on: mice of the ddN-series; test: Analgesic test, Pressure Stimulus Method; format: in vivo, mouse; settings: hypodermic injection, comparative value, pentazocine 1.0
Experimental: as §1
Pressure Stimulus Method^3)
R (hypodermic injection)
as §2, §3
^3) A. F. Green, P. A. Yound and E. I. Godfrey; British Journal of
Pharmacology and Chemotherapy, 6, 572 (1951)

CCN1CCC2(C)c3cc(OC)ccc3CC(C1)C2C (stereo not shown)
Chemical Stimulus Method (Writhing Method) [1]: 0.8 | Heat Stimulus Method (Hot Plate Method) [2]: 2.0 | LD50 [3]: 100 mg/kg

COc1ccc2c(c1)C1(C)CCN(CCc3ccccc3)CC(C1)C2O (stereo not shown)
Chemical Stimulus Method (Writhing Method) [1]: 1.6 | Heat Stimulus Method (Hot Plate Method) [2]: 2.2 | Pressure Stimulus Method [4]: 1.8 | LD50 [3]: 45 mg/kg

C=CCN1CCC2(C)CC(C1)C(O)c1ccc(OC)cc12 (stereo not shown)
Chemical Stimulus Method (Writhing Method) [1]: 1.4 | Heat Stimulus Method (Hot Plate Method) [2]: 1.6 | LD50 [3]: 61 mg/kg

CCN1CCC2(C)CC(Cc3ccc(OC)cc32)C1 (stereo not shown) [R=CH3O, R1=CH3, R2=H, CH2R3=CH2CH3, R4=H]
Chemical Stimulus Method (Writhing Method) [1]: 0.8 | Heat Stimulus Method (Hot Plate Method) [2]: 2.0 | LD50 [3]: 120 mg/kg

COc1ccc2c(c1)C1(C)CCN(C)CC(C2)C1 (stereo not shown) [R=CH3O, R1=CH3, R2=H, CH2R3=CH3, R4=H]
Chemical Stimulus Method (Writhing Method) [1]: 0.8 | Heat Stimulus Method (Hot Plate Method) [2]: 2.0 | LD50 [3]: 120 mg/kg

COc1ccc2c(c1)C1(C)CCN(CCc3ccccc3)CC(C2)C1 (stereo not shown) [R=CH3O, R1=CH3, R2=H, CH2R3=drawing 44, R4=H]
Chemical Stimulus Method (Writhing Method) [1]: 1.5 | Heat Stimulus Method (Hot Plate Method) [2]: 2.0 | LD50 [3]: 48 mg/kg

CC1C2CN(C)CCC1(C)c1ccccc1C2O (stereo not shown) [R=H, R1=CH3, R2=CH3, CH2R3=CH3, R4=OH]
Chemical Stimulus Method (Writhing Method) [1]: 1.6 | Heat Stimulus Method (Hot Plate Method) [2]: 2.0 | Pressure Stimulus Method [4]: 1.5 | LD50 [3]: 30 mg/kg

C=CCN1CCC2(C)CC(C1)C(O)c1ccccc12 (stereo not shown) [R=H, R1=CH3, R2=H, CH2R3=CH2CHCH2, R4=OH]
Chemical Stimulus Method (Writhing Method) [1]: 1.8 | Heat Stimulus Method (Hot Plate Method) [2]: 1.5 | Pressure Stimulus Method [4]: 2.0 | LD50 [3]: 55 mg/kg

CC(C)=CCN1CCC2(C)CC(C1)C(O)c1ccccc12 (stereo not shown) [R=H, R1=CH3, R2=H, CH2R3=drawing 38, R4=OH]
Chemical Stimulus Method (Writhing Method) [1]: 1.5 | Heat Stimulus Method (Hot Plate Method) [2]: 1.5 | Pressure Stimulus Method [4]: 1.6 | LD50 [3]: 25 mg/kg

CN1CCC2CC(Cc3ccccc32)C1 (stereo not shown) [R=H, R1=H, R2=H, CH2R3=CH3, R4=H, 4-methyl-2,3,4,5,6,7-hexahydro-1,6-methano-1H-4-benzazonine]
Chemical Stimulus Method (Writhing Method) [1]: 2.5 | Heat Stimulus Method (Hot Plate Method) [2]: 0.6 | LD50 [3]: 20 mg/kg

CC(C)=CCN1CCC2CC(C1)C(O)c1ccccc12 (stereo not shown) [R=H, R1=H, R2=H, CH2R3=drawing 36, R4=OH]
Chemical Stimulus Method (Writhing Method) [1]: 1.2 | Heat Stimulus Method (Hot Plate Method) [2]: 1.2 | Pressure Stimulus Method [4]: 1.4 | LD50 [3]: 60 mg/kg

c1ccc(CN2CCC3CC(Cc4ccccc43)C2)cc1 (stereo not shown) [R=H, R1=H, R2=H, CH2R3=drawing 42, R4=H]
Chemical Stimulus Method (Writhing Method) [1]: 1.0 | Heat Stimulus Method (Hot Plate Method) [2]: 3.0 | LD50 [3]: 120 mg/kg

CCN1CCC2(C)CC(Cc3ccc(O)cc32)C1 (stereo not shown) [R=HO, R1=CH3, R2=H, CH2R3=CH2CH3, R4=H]
Chemical Stimulus Method (Writhing Method) [1]: 1.5 | Heat Stimulus Method (Hot Plate Method) [2]: 2.0 | LD50 [3]: 80 mg/kg

CN1CCC2(C)CC(Cc3ccc(O)cc32)C1 (stereo not shown) [R=HO, R1=CH3, R2=H, CH2R3=CH3, R4=H, 1,4-dimethyl-10-hydroxy-2,3,4,5,6,7-hexahydro-1,6-methano-1H-4-benzazonine]
Chemical Stimulus Method (Writhing Method) [1]: 1.5 | Heat Stimulus Method (Hot Plate Method) [2]: 2.0 | LD50 [3]: 75 mg/kg

CC(C)=CCN1CCC2(C)CC(Cc3ccc(O)cc32)C1 (stereo not shown) [R=HO, R1=CH3, R2=H, CH2R3=drawing 43, R4=H]
Chemical Stimulus Method (Writhing Method) [1]: 1.0 | Heat Stimulus Method (Hot Plate Method) [2]: 1.5 | LD50 [3]: 40 mg/kg

CC(C)CCN1CCC2(C)CC(Cc3ccc(O)cc32)C1 (stereo not shown) [R=HO, R1=CH3, R2=H, CH2R3=drawing 45, R4=H]
Chemical Stimulus Method (Writhing Method) [1]: 1.0 | Heat Stimulus Method (Hot Plate Method) [2]: 1.5 | LD50 [3]: 40 mg/kg

CC(C)=CCN1CCC2(C)c3cc(O)ccc3CC1C2C (stereo not shown) [pentazocine, 1,2,3,4,5,6-hexahydro-3-(3-methyl-2-butenyl)-6, 11-dimethyl-8-hydroxy-2,6-methano-3-benzazonine, reference compound]
Pressure Stimulus Method [4]: 1.0 | LD50 [3]: 25 mg/kg
